Data published in patent US9351952B2, “Use of hesperetin” (NATURAL MEDICINE INSTITUTE OF ZHEJIANG YANGSHENGTANG CO., …, priority 2010, dated 2016).

Tested on: skin microcirculation in domestic rabbits
Assay: Effect of topical application of hesperetin on skin microcirculation by Laser Doppler Flowmetery
Assay type: in vivo, Oryctolagus cuniculus
Conditions: smearing the backs of rabbits with samples of different concentrations
Excerpt: The experimental method for promoting microcirculation: Male Oryctolagus cuniculus weighted 3.0-3.5 kg were used. After shaving the hair on the back of the Oryctolagus cuniculus, 10 points for testing blood flow were marked with a marker pen on the hairless skin of the rabbit, i.e. 5 points for each of the right side and the left side, and aorta was avoided when drawing the points. Before smearing the sample, the basic values of blood flow at the 10 points of rabbits of each experimental group were determined by Laser Doppler Flowmetery. […] 2% solution was orally administrated by a similar method in a volume 100 times compared to the volume used in the group wherein the 2% solution was administered by smearing. After administration, the blood flow value was determined every hour at the same point by Laser Doppler Flowmetery for 24 h, and the variation index of blood flow was calculated to evaluate the effect of hesperetin on the back blood of rabbits, wherein a higher variation index of blood flow indicates a better effect of promoting microcirculation. The experimental results were statistically analyzed by SPSS11.5 software, t-test was applied to the measured data to evaluate the experimental results. When P<0.1, the data may be regarded as statistically significant. In the results of Table 1, all the time points at with P<0.1 in the 24-h test were listed.

In the case of `COc1ccc([C@@H]2CC(=O)c3c(O)cc(O)cc3O2)cc1O` [Hesperetin], the “blood flow in skin microvessels as compared to the blank side” value is reported as “significantly enhanced”.
